Test results: patent US20150126448A1 (Genentech, Inc., priority 2003, published 2015)

How the values were obtained:
[1] = tested on: MDA-MB-435 cells; assay: MDA-MB-435 cell migration transwell assay; assay type: cell-based
Experimental: (A) Representative purity of HGF mutants. […] Incomplete conversion of the secreted single-chain form by CHO expression in 1% FBS (v/v) is shown in lane 1. […] Molecular weight markers are shown as Mr×10^3. […] Values represent the averages of 4-8 independent experiments±SD.
Breast cancer cells MDA-MB-435 (HTB-129, ATCC, Manassas, Va.) were cultured in recommended serum-supplemented medium. Confluent cells were detached in PBS containing 10 mM EDTA and diluted with serum-free medium to a final concentration of 0.6−0.8×10^5 cells/ml. 0.2 ml of this suspension ([…]) was added in triplicate to the upper chambers of 24-well transwell plates (8 μm pore size) (HTS Multiwell™ Insert System, Falcon, Franklin Lakes, N.J.) pre-coated with 10 μg/ml of rat tail collagen Type I (Upstate, Lake Placid, N.Y.). […] After incubation for 13-14 h, cells on the apical side of the membrane were removed and those that migrated to the basal side were fixed in 4% paraformaldehyde followed by staining with a 0.5% crystal violet solution. After washing and airdrying, cells were solubilized in 10% acetic acid and the A560 was measured on a Molecular Devices microplate reader. […] Photographs of stained cells were taken with a Spot digital camera (Diagnostics Instruments, Inc., Sterling Heights, Mich.) connected to a Leitz microscope (Leica Mikroskope & Systeme GmbH, Wetzlar, Germany). […]

[2] = target: Met-IgG fusion protein (UniProt P08581); assay: HGF/Met-IgG competition binding ELISA; competitor: 1 nM biotinylated HGF
[3] = tested on: BxPC3 cells; assay: HGF-dependent proliferation assay in BxPC3 cells (stimulation); assay type: cell-based, human; settings: n=12
Experimental: BxPC3 (human pancreatic adeocarcinoma; ECACC No. 93120816) were obtained from the European Collection of Cell Cultures (CAMR Centre for Applied Microbiology and Research, Porton Down, Salisbury, Wiltshire (UK) and were used in an HGF-dependent proliferation assay. Cells were grown in RPMI medium containing 10% FCS (Sigma F-6178, St. Louis, Mo.), 10 mM HEPES, 2 mM glutamine, 1× Penicillin-Streptomycin (Invitrogen 15140-122, Carlsbad, Calif.), 100× penicillin 10000 μg/ml-streptomycin 10000 mg/ml), and G418 (Invitrogen 10131-035) at 250 mg/ml. The cells were sequentially washed with PBS, PBS containing 10 mM EDTA, then removed using trypsin. The cells were harvested into serum containing media and the cell density was determined using a hemacytometer. Cells at 50000-75000/ml were seeded at 200 μl per well into a white bottom MT plate (Cultur Plate™ 6005680 Packard/PerkinElmer, Boston, Mass.) using the inside 60 wells only and allowed to grow for 24 h. The media was removed, the cells were washed with PBS and 200 ml of serum-free media containing 0.1% BSA (SF-BSA) was added back to the cells. The cells were grown for an additional 24 h. […]
The cells were allowed to grow for 72 h and then assayed using the CellTiter-Glo Luminescent Kit (Promega G7571, Madison, Wis.). […] The microtiter plate was read on a Tropix TR717 microplate luminometer (Berthold 75323 Bad Wildbad, Germany). […]

[4] = tested on: BxPC3 cells; assay: Inhibition of HGF-dependent cell proliferation in BxPC3 cells; assay type: cell-based, human; settings: 5 μg/ml test protein, 25 ng/ml HGF WT; for inhibition of HGF-dependent cell proliferation activity (% activity II): normalized to 5 μg/ml mutant alone (0%) and 25 ng/ml HGF WT (100%); for inhibition of HGF-dependent cell proliferation activity (% activity I): normalized to no HGF (0%) and 25 ng/ml HGF WT (100%)
Experimental: BxPC3 (human pancreatic adeocarcinoma; ECACC No. 93120816) were obtained from the European Collection of Cell Cultures (CAMR Centre for Applied Microbiology and Research, Porton Down, Salisbury, Wiltshire (UK) and were used in an HGF-dependent proliferation assay. Cells were grown in RPMI medium containing 10% FCS (Sigma F-6178, St. Louis, Mo.), 10 mM HEPES, 2 mM glutamine, 1× Penicillin-Streptomycin (Invitrogen 15140-122, Carlsbad, Calif.), 100× penicillin 10000 μg/ml-streptomycin 10000 mg/ml), and G418 (Invitrogen 10131-035) at 250 mg/ml. The cells were sequentially washed with PBS, PBS containing 10 mM EDTA, then removed using trypsin. The cells were harvested into serum containing media and the cell density was determined using a hemacytometer. Cells at 50000-75000/ml were seeded at 200 μl per well into a white bottom MT plate (Cultur Plate™ 6005680 Packard/PerkinElmer, Boston, Mass.) using the inside 60 wells only and allowed to grow for 24 h. The media was removed, the cells were washed with PBS and 200 ml of serum-free media containing 0.1% BSA (SF-BSA) was added back to the cells. The cells were grown for an additional 24 h. […] Controls were run in the absence of HGF and/or in the absence of test HGF proteins.
The cells were allowed to grow for 72 h and then assayed using the CellTiter-Glo Luminescent Kit (Promega G7571, Madison, Wis.). The procedure followed is described in Promega Technical Bulletin TB288. The microtiter plate was read on a Tropix TR717 microplate luminometer (Berthold 75323 Bad Wildbad, Germany). The percent of stimulation or inhibition of cell proliferation was normalized to the appropriate controls.

Substance | inhibition of HGF-dependent cell proliferation activity (% activity II) [4] [%] | inhibition of HGF-dependent cell proliferation activity (% activity I) [4] [%] | other results
HGF β: HGF β-chain residues Val495 to Ser728 with Cys604 to Ser mutation and C-terminal His6 tag | – | – | effect in cell migration assay ([1]; concentrations of up to 0.95 μM): had no effect
K641A [c173] (ligand) | – | – | IC50mut/IC50WT [2]: 1.04
HGF: wild type hepatocyte growth factor, disulfide-linked two-chain α/β heterodimer, recombinant from CHO cells | – | – | proliferation activity at 25 ng/ml as % of the activity at 100 ng/ml [3]: 83.6±13.0%
HGF R695A: full length two-chain HGF with R695A mutation in the β-chain | 68 | 79 | –
proHGF: uncleavable single chain form of HGF with amino acid changes R494E and R424A | 75 | 63 | stimulation of cell migration ([1]; 1 nM, MDA-MB435 cells, FIG. 2B, 2C): did not stimulate cell migration
